This is an account of results in PMC10350928 (Journal of Medicinal Chemistry, 2023).

Where only a bound is given, the exact number is not on record here.

Series [1] has as its target T1, WT c-MET (Homo sapiens, UniProt P08581). The class given is binding. The conditions noted are these: Table 1; LLE = pKd – log D.
For another series, the system named is Rat hepatocytes. The experiment in a line: Rat hepatocyte Clint. The note with it: rat hepatocytes.
Series [2] has as its target T1, WT c-MET. The class given is biochemical. The note with it: Table 3; LLE = pIC50 – log D.

T1 sequence (P08581 25-1390): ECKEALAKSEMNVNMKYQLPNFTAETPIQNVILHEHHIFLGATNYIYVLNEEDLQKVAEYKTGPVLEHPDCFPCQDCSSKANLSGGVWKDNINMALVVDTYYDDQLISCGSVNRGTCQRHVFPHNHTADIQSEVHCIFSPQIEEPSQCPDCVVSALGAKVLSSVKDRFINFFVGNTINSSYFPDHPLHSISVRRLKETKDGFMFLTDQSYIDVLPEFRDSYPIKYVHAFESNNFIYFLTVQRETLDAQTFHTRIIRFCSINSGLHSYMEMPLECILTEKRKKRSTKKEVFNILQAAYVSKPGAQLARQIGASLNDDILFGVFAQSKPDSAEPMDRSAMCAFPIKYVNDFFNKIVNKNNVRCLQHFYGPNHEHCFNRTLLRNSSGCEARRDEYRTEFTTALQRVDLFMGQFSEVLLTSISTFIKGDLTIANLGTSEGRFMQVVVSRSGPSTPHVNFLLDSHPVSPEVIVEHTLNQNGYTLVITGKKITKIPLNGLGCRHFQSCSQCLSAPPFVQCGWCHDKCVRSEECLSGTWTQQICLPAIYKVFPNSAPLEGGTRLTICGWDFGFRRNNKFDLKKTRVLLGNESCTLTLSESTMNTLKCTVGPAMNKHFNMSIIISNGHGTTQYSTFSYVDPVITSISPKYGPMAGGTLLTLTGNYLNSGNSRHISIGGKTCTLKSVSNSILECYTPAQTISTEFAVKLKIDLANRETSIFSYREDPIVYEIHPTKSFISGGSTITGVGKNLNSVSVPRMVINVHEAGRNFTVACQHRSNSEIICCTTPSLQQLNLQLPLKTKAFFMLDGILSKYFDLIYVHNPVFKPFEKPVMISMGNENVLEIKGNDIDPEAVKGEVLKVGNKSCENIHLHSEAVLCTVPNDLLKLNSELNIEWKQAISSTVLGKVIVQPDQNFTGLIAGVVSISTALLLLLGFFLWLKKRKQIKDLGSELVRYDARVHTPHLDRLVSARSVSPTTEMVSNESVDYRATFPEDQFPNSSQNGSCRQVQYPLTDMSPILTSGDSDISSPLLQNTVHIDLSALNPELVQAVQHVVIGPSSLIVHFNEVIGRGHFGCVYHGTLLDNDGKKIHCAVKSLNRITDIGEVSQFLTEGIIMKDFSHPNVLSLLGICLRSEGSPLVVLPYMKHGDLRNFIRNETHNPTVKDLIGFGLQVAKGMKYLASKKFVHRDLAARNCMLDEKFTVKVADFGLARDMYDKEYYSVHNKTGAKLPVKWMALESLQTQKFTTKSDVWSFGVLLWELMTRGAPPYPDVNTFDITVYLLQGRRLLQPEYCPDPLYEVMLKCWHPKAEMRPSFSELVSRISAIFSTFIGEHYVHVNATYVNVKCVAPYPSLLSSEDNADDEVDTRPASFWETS

`CC(c1ccccc1)n1cc(-c2ccccn2)c(=O)[nH]c1=O` (stereo not drawn) [Compound 12, 1-(1-Phenylethyl)-5-(pyridin-2-yl)pyrimidine-2,4(1H,3H)-dione]: on WT c-MET [1], the “SPR assay LLE WT” value turned out to be 3.2. Besides, the RH in the series with Rat hepatocytes (Table 1) is 300 μL/min/10^6 cells.
The matching figures for `CC(c1cccc(-c2c[nH]cn2)c1)n1cc(-c2cc(F)cc(F)c2)c(=O)[nH]c1=O` (stereo not drawn) [Compound 10, 1-(1-(3-(1H-Imidazol-5-yl)phenyl)ethyl)-5-(3,5-difluorophenyl)pyrimidine-2,4(1H,3H)-dione]: 3.1 and 6.03 μL/min/10^6 cells.
The matching figures for `CC(c1ccccc1Cl)n1cc(-c2cc(F)cc(F)c2)c(=O)[nH]c1=O` (stereo not drawn) [Compound 5, 1-(1-(2-Chlorophenyl)ethyl)-5-(3,5-difluorophenyl)pyrimidine-2,4(1H,3H)-dione]: 0.82 and 227 μL/min/10^6 cells.
Consider `CC(c1cccc(-c2cc[nH]n2)c1)n1cc(-c2cc(F)cc(F)c2)c(=O)[nH]c1=O` (stereo not drawn) [Compound 8, 1-(1-(3-(1H-Pyrazol-3-yl)phenyl)ethyl)-5-(3,5-difluorophenyl)pyrimidine-2,4(1H,3H)-dione], for which the “SPR assay LLE WT” value on WT c-MET [1] worked out at 2.1. The RH in the series with Rat hepatocytes (Table 1) is reported as 24.7 μL/min/10^6 cells.
The corresponding values for `C[C@@H](c1ccccc1)n1cc(-c2cc(F)cc(F)c2)c(=O)[nH]c1=O` [Compound 3, (S)-5-(3,5-Difluorophenyl)-1-(1-phenylethyl)pyrimidine-2,4(1H,3H)-dione] are 2.9 and 133 μL/min/10^6 cells.
For `O=c1[nH]c(=O)n(Cc2ccccc2)cc1-c1cc(F)cc(F)c1` [Compound 4, 1-Benzyl-5-(3,5-difluorophenyl)pyrimidine-2,4(1H,3H)-dione], the “SPR assay LLE WT” value on WT c-MET [1] is <1.0/<1.0. In the series with Rat hepatocytes (Table 1), this molecule gave an RH of 76.7 μL/min/10^6 cells.
The matching figures for `CC(c1cccc(-c2cn[nH]c2)c1)n1cc(-c2cc(F)cc(F)c2)c(=O)[nH]c1=O` (stereo not drawn) [Compound 9, 1-(1-(3-(1H-Pyrazol-4-yl)phenyl)ethyl)-5-(3,5-difluorophenyl)pyrimidine-2,4(1H,3H)-dione]: 2.7 and 22.3 μL/min/10^6 cells.
In the case of `CC(c1cccc(-c2c[nH]cn2)c1)n1cc(-c2cccc3cn[nH]c23)c(=O)[nH]c1=O` (stereo not drawn) [Compound 16, 1-(1-(3-(1H-Imidazol-5-yl)phenyl)ethyl)-5-(1H-indazol-7-yl)pyrimidine-2,4(1H,3H)-dione], on WT c-MET [1], the “SPR assay LLE WT” value is given as 4.1. This molecule returned an RH in the series on Rat hepatocytes (Table 1) of 5.84 μL/min/10^6 cells.
With `CC(c1ccccc1)n1cc(-c2ccc3[nH]ccc3c2)c(=O)[nH]c1=O` (stereo not drawn) [Compound 14, 5-(1H-Indol-5-yl)-1-(1-phenylethyl)pyrimidine-2,4(1H,3H)-dione], the “SPR assay LLE WT” value at WT c-MET [1] is reported as 3.4/3.4. The same molecule gave an RH in the series with Rat hepatocytes (Table 1) of 217 μL/min/10^6 cells.
Consider `CC(c1ccc(F)cc1)n1cc(-c2cc(F)cc3c(C#N)n[nH]c23)c(=O)[nH]c1=O` (stereo not drawn) [Compound 24, 5-Fluoro-7-(1-(1-(4-fluorophenyl)ethyl)-2,4-dioxo-1,2,3,4-tetrahydropyrimidin-5-yl)-1H-indazole-3-carbonitrile], for which the “ADP-Glo assay LLE WT” value on WT c-MET [2] is listed as 3.4. In the series with Rat hepatocytes (Table 3), this molecule showed an RH of 4.40 μL/min/10^6 cells.
As to `CC(c1cccc(Cl)c1)n1cc(-c2cc(F)cc(F)c2)c(=O)[nH]c1=O` (stereo not drawn) [Compound 7, 1-(1-(3-Chlorophenyl)ethyl)-5-(3,5-difluorophenyl)pyrimidine-2,4(1H,3H)-dione], the “SPR assay LLE WT” value at WT c-MET [1] is 2.2. Also, the RH in the series with Rat hepatocytes (Table 1) was 177 μL/min/10^6 cells.
With `C#Cc1n[nH]c2c(-c3cn(C(C)c4ccccc4)c(=O)[nH]c3=O)cccc12` (stereo not drawn) [Compound 28, 5-(3-Ethynyl-1H-indazol-7-yl)-1-(1-phenylethyl)pyrimidine-2,4(1H,3H)-dione], on WT c-MET [2], the “ADP-Glo assay LLE WT” value came to 4.2. Moreover, in the series with Rat hepatocytes (Table 3), the RH was 9.10 μL/min/10^6 cells.
